Test results: patent US11299453B2 (Universität zu Köln, priority 2017, dated 2022)
Read-outs that look alike come from different tables or passages of the source.

What was measured:
[1] = tested on: murine and human PSCs; experiment: Dose response assays, statements over murine and human PSCs; format: cell-based; conditions: for IC50: iPSC, 48 h, read-out: IC50 values, range over murine iPSC line, two murine ESC lines and human iPSC line
Method: (§1) Serial dilutions of DMSO stock solutions of PluriSIn #1 (Sigma-Aldrich, catalog number SML0682) or one of small molecules SM1-SM10, were prepared from 20 mM stock solutions with cell culture medium. Murine PSCs were dissociated with 0.05% trypsin-EDTA, seeded on 0.1% gelatin-coated 96-well plates with a density of 5000 cells/well and cultured in maintenance medium supplemented with 1000 U/ml of mLIF. After 1 day, cells were incubated with 40 μM PluriSIn #1 and derivatives for 72 h or with 0.01-25 μM SMs for 48 h, respectively. For treatment of corresponding PSC-derived CMs with SMs, puromycin-selected miPSC-CMs from day 14 of differentiation were dissociated with 0.25% trypsin-EDTA as described above and plated on 96-well plates (5×10^4 cells/well) which were pre-coated with 5 μg/ml fibronectin (PromoCell, Heidelberg, Germany). After culturing miPSC-CMs with 8 μg/ml puromycin for 2 more days, they were incubated in differentiation medium supplemented with 0.1-100 μM of SMs for 48-72 h. Following small molecule treatment, cell viability was determined with PrestoBlue cell viability reagent (Life Technologies). To this end, cells were washed with PBS (with calcium and magnesium, Life Technologies) and incubated with PrestoBlue reagent diluted in cell culture medium for 40 min at 37° C.
(§2) Fluorescence intensities correlating with the number of viable cells in the wells were measured in black flat-bottom 96-well plates (Greiner Bio-One, Kremsmünster, Austria) with a GeniosPro microplate reader (Tecan, Männedorf, Schweiz).
IC50 values were determined by regression analysis of dose-response curves upon logarithmic transformation. Microscopic images of PSCs were taken with a Zeiss Axiovert 100 inverted microscope and GFP images of CMs were captured with a Zeiss Axiovert 200M fluorescence microscope (both Carl Zeiss, Oberkochen, Germany) and analyzed with Zeiss Axiovision 4.5 software (Carl Zeiss).
In order to quantify compound cytotoxicity, dose response assays were performed by treating PSCs with compound concentrations between nontoxic 0.01 μM and PSC-eliminating 10 μM for 48 h. Murine iPSCs αPIG-AT25, embryonic stem cell lines αPIG44-D3 and R1, and human induced pluripotent stem cell (hiPSC) line NP0014-C6 were used. Cell culture and dose response assays were performed as described above.

[2] = Cell viability (PrestoBlue) of miPSC-derived cardiomyocytes; format: cell-based, murine; conditions: mouse, αPIG-AT25 miPSC-derived cardiomyocytes (puromycin-selected), 10 μM, 72 h of exposure
Method: The differentiation of transgenic mPSCs was initiated in mass cultures as briefly described below. One million cells were transferred per non-adhering 10 cm dish with 14 ml differentiation medium composed of Iscove's Modified Dulbecco's Medium (IMDM) with GlutaMAX (Life Technologies) supplemented with 20% FBS, 1×NEAA and 100 μM β-ME. Embryoid bodies (EBs) from day 2 of differentiation were transferred in a 250 ml spinner flask (CELLSPIN 250, Integra Biosciences, Fernwald, Germany) with a density of 3×10^4 EBs per 200 ml of differentiation medium. On the first 2 days of differentiation medium was supplemented with 50 μg/ml L-ascorbic acid phosphate (AA, Wako pure chemicals industry, Japan) in order to promote the development of cardiac cells. For the selection of GFP-expressing CMs, 50 ml of the medium was exchanged with fresh differentiation medium and 8 μg/ml puromycin (Life Technologies) were supplemented on day 9 of differentiation. Two days later, the cardiac clusters were transferred on non-adhering 10 cm dishes with fresh differentiation medium containing 8 μg/ml puromycin. In the further course of differentiation medium was exchanged every 2-3 days. If not otherwise specified, the purification of GFP-positive CMs with puromycin was continued until day 16 of differentiation. For single cell analyses and transfer of PSC-derived CMs on cell culture plates, cardiac clusters were dissociated with 0.25% trypsin-EDTA (Life Technologies) supplemented with 50 U/ml DNase I (AppliChem, Darmstadt, Germany) for 20-30 min at 37° C. The mPSC-derived CMs were filtered through a polyamide membrane with […] pore size (Sefar, Heiden, Switzerland). Cell numbers were determined with a Neubauer hemocytometer and cells were stored on ice until further use.
as §1, §2
The selectivity of compounds was investigated by comparing their cytotoxicity against undifferentiated iPSCs and iPSC-derived CMs. Murine iPSCs αPIG-AT25 were incubated for 48 h with compounds SM1, SM2, SM4, SM5, SM6 and SM8 in concentrations of 0.01 to 10 μM. Cell culture and cardiac differentiation were performed as described above. Experiments were run at least in quadruplicate. The cell viability was determined using PrestoBlue cell viability reagent.
The viability of salicylic diamine-treated CMs was confirmed by 72 h of exposure to concentrations of 0.01 μM, 0.1 μM, 1 μM, 10 μM and 25 μM of compounds SM1, SM2, SM4, SM5, SM6 and SM8.

[3] = tested on: miPSC-CM monolayers; experiment: Cardiomyocyte contraction rate by video imaging; format: cell-based, murine; conditions: 10 μM, 48 h treatment
Method: The effect of compound treatment on CM beating frequency was determined by video imaging of iPSC-CM monolayers after exposure to SMs. On day 14 of differentiation puromycin-selected miPSC-CMs were plated on a fibronectin-coated multi-well cell culture plate (10^5 cells/cm^2). […] Following SM treatment, cells were washed twice with PBS (with calcium and magnesium) and cultured for 72 h in fresh differentiation medium. […] The number of beats per each video sequence was quantified and the contraction rate was calculated in beats per minute.
Further, the effect of compound treatment on the CM beating frequency was determined by video imaging of iPSC-CM monolayers after exposure to compounds as described above.

[4] = tested on: αPIG-AT25 miPSC-derived cardiomyocytes; experiment: Cell viability (PrestoBlue) of miPSC-derived cardiomyocytes; format: cell-based, murine; conditions: 48 h treatment
[5] = read-out: decrease of cardiomyocyte viability, in average over SM1, SM4 and SM8
[6] = read-out: decrease of cardiomyocyte viability

Row | IC50 [1] [nM] | decrease of contraction rate of CMs compared to DMSO-treated control [3] [%] | SMILES | cytotoxicity at 72 h, 10 μM [2, 5] [%] | cytotoxicity at 72 h, 10 μM [2, 6] [%] | microscopic analysis of CM monolayers [4] | effect on pluripotent stem cells ([1]; 10 μM, two day-treatment)
1 | 100 to 5000 | – | Oc1c(CN[C@@H]2CCCC[C@H]2NCc2cccc(-c3ccccc3)c2O)cccc1-c1ccccc1 [SM4, (1R,2R)-N,N′-di[(2-hydroxy-3-phenyl)-benzyl]-1,2-diaminocyclohexane] | 79.8 ± 14.7 | – | – | –
2 | – | 71.37±26.91 | Oc1c(CNC2CCCC[C@@H]2NCc2cccc(-c3ccccc3)c2O)cccc1-c1ccccc1 (stereo partly drawn) [SM8, (1S,2R)-N,N′-di[(2-hydroxy-3-phenyl)-benzyl]-1,2-diaminocyclohexane] | – | – | intact CM monolayers | –
3 | 100 to 5000 | – | Oc1c(CNC2CCCC[C@@H]2NCc2cccc(-c3ccccc3)c2O)cccc1-c1ccccc1 (stereo partly drawn) [SM1, (1S,2S)-N,N′-di[(2-hydroxy-3-phenyl)-benzyl]-1,2-diaminocyclo-hexane] | 79.8 ± 14.7 | – | – | –

Continued, compound first:

Row | SMILES | IC50 [1] [nM] | decrease of contraction rate of CMs compared to DMSO-treated control [3] [%] | cytotoxicity at 72 h, 10 μM [2, 5] [%] | cytotoxicity at 72 h, 10 μM [2, 6] [%] | microscopic analysis of CM monolayers [4] | effect on pluripotent stem cells ([1]; 10 μM, two day-treatment)
4 | Oc1c(/C=N/[C@@H]2CCCC[C@H]2NCc2cccc(-c3ccccc3)c2O)cccc1-c1ccccc1 [SM5, (1R,2R)-N-[(2-hydroxy-3-phenyl)-benzyl]-N′-[(2-hydroxy-3-phenyl)-benzylidene]-1,2-diaminocyclohexane] | 100 to 5000 | – | – | 14.1 ± 13.8 | – | –
5 | Oc1c(/C=N/[C@H]2CCCC[C@@H]2NCc2cccc(-c3ccccc3)c2O)cccc1-c1ccccc1 [SM2, (1S,2S)-N-[(2-hydroxy-3-phenyl)-benzyl]-N′-[(2-hydroxy-3-phenyl)-benzylidene]-1,2-diaminocyclohexane] | 100 to 5000 | 61.02±2.67 | – | 18.5 ± 7.06 | intact CM monolayers | –
6 | Oc1ccccc1CN[C@@H]1CCCC[C@H]1NCc1ccccc1O [SM6, (1R,2R)-N,N′-di(2-hydroxybenzyl)-1,2-diaminocyclohexane] | 100 to 5000 | 24.26±15.71 | – | 11 ± 13.2 | intact CM monolayers | elimination of pluripotent stem cells
